Biological target: T1, sodium-proton exchanger of subtype 3 (NHE3) (Homo sapiens, UniProt P48764)
T1 construct: expressed in transfected cells
T1 sequence (P48764 26-834): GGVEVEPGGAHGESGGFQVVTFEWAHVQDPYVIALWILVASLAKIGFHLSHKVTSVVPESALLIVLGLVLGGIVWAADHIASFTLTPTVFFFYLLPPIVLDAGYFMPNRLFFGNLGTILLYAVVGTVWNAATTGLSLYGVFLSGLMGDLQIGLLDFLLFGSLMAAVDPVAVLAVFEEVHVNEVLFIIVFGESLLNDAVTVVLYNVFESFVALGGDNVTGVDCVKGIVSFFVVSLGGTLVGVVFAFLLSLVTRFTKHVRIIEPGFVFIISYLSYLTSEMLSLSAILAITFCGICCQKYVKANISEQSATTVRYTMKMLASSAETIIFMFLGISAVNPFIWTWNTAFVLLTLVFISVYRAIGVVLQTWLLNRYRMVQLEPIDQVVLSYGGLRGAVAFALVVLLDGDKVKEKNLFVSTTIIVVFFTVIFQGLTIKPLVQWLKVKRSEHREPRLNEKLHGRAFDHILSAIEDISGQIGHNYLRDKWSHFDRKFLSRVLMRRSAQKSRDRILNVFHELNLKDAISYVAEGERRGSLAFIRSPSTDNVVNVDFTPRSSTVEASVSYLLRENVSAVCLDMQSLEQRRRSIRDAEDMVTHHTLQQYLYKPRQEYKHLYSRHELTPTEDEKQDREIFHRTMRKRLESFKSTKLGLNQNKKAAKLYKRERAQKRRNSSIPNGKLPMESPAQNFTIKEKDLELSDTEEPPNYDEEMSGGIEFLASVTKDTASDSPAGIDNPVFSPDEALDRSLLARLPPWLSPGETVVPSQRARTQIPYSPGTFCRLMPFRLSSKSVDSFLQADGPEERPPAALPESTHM
Test: Recovery of intracellular pH (pHi) after acidification in LAP1 cells stably expressing NHE3 (BCECF fluorescence, FLIPR)
Format: cell-based
Conditions: Activity range (inhibitory effect on NHE3), LAP1 cells stably expressing NHE3; pH recovery after acidification; range 1 is % inhibition at 10 μM

Row | Compound | IC50
1 | Cc1nncn1-c1ccc(O[C@H]2c3ccccc3C[C@@H]2N2CCCC2)cc1 (racemic) [Example 453, 3-methyl-4-[4-(rac-trans-(1,2)-2-pyrrolidin-1-ylindan-1-yloxy)phenyl]-4H-[1,2,4]triazole] | < 1 µM

Same assay, conditions: LAP1 cells stably expressing NHE3; pH recovery after acidification; range 1 is % inhibition at 10 μM; read-out: Activity range (inhibitory effect on NHE3)

Row | Compound | IC50 | inhibition at 10 µM
2 | NCC1CCN([C@@H]2Cc3ccccc3[C@H]2Oc2ccc3[nH]cc(CC(N)=O)c3c2)C1 (mixture of isomers) [Example 386, 2-{5-[rac-trans-(1,2)-2-(3-aminomethylpyrrolidin-1-yl)indan-1-yloxy]-1H-indol-3-yl}acetamide] | 1 to 10 µM | 
3 | CS(=O)(=O)c1ccc(O[C@H]2c3cc(Cl)ccc3C[C@@H]2N2CCNCC2)cc1 (racemic) [Example 289, 1-[rac-trans-(1,2)-6-chloro-1-(4-methanesulfonylphenoxy)indan-2-yl]piperazine] | < 1 µM | 
4 | CC(=O)Nc1cccc(O[C@H]2c3c(Cl)cccc3C[C@@H]2N2CCCC2)c1 (racemic) [Example 662, N-[3-(rac-trans-(1,2)-7-chloro-2-pyrrolidin-1-ylindan-1-yloxy)phenyl]acetamide] | 1 to 10 µM | 
5 | CN(C)C1Cc2ccccc2C1Oc1ccc(S(N)(=O)=O)c(Cl)c1Cl (racemic) [Example 356, 2,3-dichloro-4-(rac-trans-(1,2)-2-dimethylaminoindan-1-yloxy)benzenesulfonamide] | < 1 µM | 
6 | N[C@@H]1CCCN([C@H]2CCc3ccccc3[C@@H]2Oc2ccccc2Br)C1 (racemic) [Example 36, (R)-1-[rac-trans-(1,2)-1-(2-bromophenoxy)-1,2,3,4-tetrahydronaphthalen-2-yl]piperidin-3-ylamine] |  | 20 to 50%
7 | N[C@H]1CCCN([C@H]2CCc3ccccc3[C@@H]2Oc2ccc(F)cc2)C1 (racemic) [Example 179, (S)-1-[rac-trans-(1,2)-1-(4-fluorophenoxy)-1,2,3,4-tetrahydronaphthalen-2-yl]piperidin-3-ylamine] |  | 20 to 50%
8 | Nc1cccc(O[C@@H]2c3ccccc3C[C@H]2N2CCCC2)c1 (racemic) [Example 401, 3-(rac-trans-(1,2)-2-pyrrolidin-1-ylindan-1-yloxy)phenylamine] | 1 to 10 µM | 
9 | c1cc(O[C@@H]2c3ccccc3C[C@H]2N2C[C@H]3CNC[C@H]3C2)cc(N2CCCCC2)c1 (racemic) [Example 15, 2-[rac-trans-(1,2)-1-(3-piperidin-1-ylphenoxy)indan-2-yl]octahydropyrrolo[3,4-c]pyrrole] | 1 to 10 µM | 

The remaining lines, values ahead:

Row | IC50 | inhibition at 10 µM | Compound
10 | 1 to 10 µM |  | O=C1OCCN1c1ccc(O[C@H]2c3cc(Cl)cc(Cl)c3C[C@@H]2N2CC[C@@H](O)C2)cc1 [Example 429, 3-{4-[trans-(1S,2S)-4,6-dichloro-2-((R)-3-hydroxypyrrolidin-1-yl)indan-1-yloxy]phenyl}oxazolidin-2-one]
11 | 1 to 10 µM |  | COc1ccc(C)cc1O[C@@H]1c2ccccc2C[C@H]1N1CCC(CN)CC1 (racemic) [Example 606, C-{1-[rac-trans-(1,2)-1-(2-methoxy-5-methylphenoxy)indan-2-yl]piperidin-4-yl}methylamine]
12 | 1 to 10 µM |  | Cc1nnnn1-c1ccc(O[C@H]2c3cc(Cl)cc(Cl)c3C[C@@H]2N2CC[C@@H](O)C2)cc1 [Example 112, (R)-1-{(1S,2S)-4,6-dichloro-1-[4-(5-methyltetrazol-1-yl)phenoxy]indan-2-yl}pyrrolidin-3-ol]
13 | 1 to 10 µM |  | Cc1nc(C(C)(C)C)cn1-c1ccc(O[C@H]2c3cc(Cl)cc(Cl)c3C[C@@H]2N2CC[C@@H](O)C2)c(F)c1 [Example 729, (R)-1-{trans-(1S,2S)-1-[4-(4-tert-Butyl-2-methyl-imidazol-1-yl)-2-fluoro-phenoxy]-4,6-dichloro-indan-2-yl}-pyrrolidin-3-ol]
14 | 1 to 10 µM |  | NS(=O)(=O)c1ccc(O[C@H]2c3ccccc3C[C@@H]2N2CCCC(O)C2)c(Cl)c1Cl (mixture of isomers) [Example 361, 2,3-dichloro-4-[trans-(1S,2S)-2-(3-hydroxy-piperidin-1-yl)indan-1-yloxy]benzenesulfonamide]

Source: patent publication US8822449B2, “Substituted aminoindanes and analogs thereof, and the pharmaceutical use thereof” (Sanofi, priority 2008, dated 2014)
